According to the SangsterLogP compilation:

Assay: method code SF-HPLC, from DOI: 10.1002/jps.2600840914, PMID: 8537890

SMILES | logP
S=c1ssc2c1CCCCCC2 | 3.75
S=c1ssc2c1CCCCC2 | 3.27
CCCc1ssc(=S)c1C | 3.42
Cc1ssc(=S)c1C | 2.45
Cc1cssc1=S | 2.18
CCc1ssc(=S)c1CC | 3.51
Cc1cssc1=O | 1.33
CCc1cssc1=S | 2.67
Cc1ssc(=O)c1C | 1.73
CCCc1cc(=S)ss1 | 2.83
COc1ccc(-c2cc(=S)ss2)cc1 | 3.82
CCCc1cssc1=S | 3.18
S=c1ssc2c1CCC2 | 2.53
CCCc1ssc(=S)c1CC | 3.76
CCCc1cssc1=O | 2.38
CCc1ssc(=S)c1C | 2.95
S=c1ccss1 | 1.58
CCCCCc1cssc1=S | 4.06
CCCCc1cssc1=S | 3.7
CCc1cc(=O)ss1 | 1.69
Cc1cc(=S)ss1 | 1.87
CCc1c(C)ssc1=S | 2.94
CCc1cc(=S)ss1 | 2.31
CCCc1cc(=O)ss1 | 2.24
CCCc1c(C)ssc1=S | 3.39
Cc1cc(=O)ss1 | 1.26

The remaining lines, values ahead:

logP | SMILES
3.78 | Cc1ssc(=S)c1Cc1ccccc1
4.1 | COc1ccc(-c2ssc(=S)c2C)cc1
3.67 | S=c1cc(-c2ccccc2)ss1
3.52 | CCc1ssc(=S)c1-c1ccccc1
3.73 | Cc1ccc(-c2cssc2=S)cc1
3.57 | S=c1ssc2ccccc12
3.17 | Cc1ssc(=S)c1-c1ccccc1
3.2 | S=c1sscc1-c1ccccc1
3.43 | S=c1cc(Cc2ccccc2)ss1
3.95 | Cc1c(-c2ccccc2)ssc1=S
4.26 | Cc1ccc(-c2cc(=S)ss2)cc1
